Values of other authors in patent US11235023B2, “Beta-hairpin peptidomimetic with elastase inhibitory activity and aerosol dosage forms thereof” (POLYPHOR AG, priority 2016, dated 2022).

Columns and labels:
[1] = biological target: T1, neutrophil elastase (Mus musculus, UniProt Q3UP87); settings: mouse model of neutrophil allergen challenge; cited from earlier work
T1 sequence (Q3UP87 27-265): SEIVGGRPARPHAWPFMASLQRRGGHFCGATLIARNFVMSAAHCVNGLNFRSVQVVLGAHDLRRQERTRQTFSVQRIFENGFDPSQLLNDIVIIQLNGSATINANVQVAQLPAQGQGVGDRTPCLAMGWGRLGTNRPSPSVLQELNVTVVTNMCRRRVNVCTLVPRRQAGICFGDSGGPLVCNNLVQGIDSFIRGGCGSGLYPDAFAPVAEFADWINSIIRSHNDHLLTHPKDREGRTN

[2] = tested on: elastase; settings: nasal instillation, CD-1 mice; cited from earlier work

| Compound | Effect on airway hyperresponsiveness and inflammation [1] | Protection against elastase-mediated injury [2] |
| --- | --- | --- |
| CC(C)(C)C(=O)Oc1ccc(S(=O)(=O)Nc2ccccc2C(=O)NCC(=O)O)cc1 [sivelelstat] | attenuates airway hyperresponsiveness and inflammation | – |
| rhalpha1PI: recombinant form of the elastase inhibitor alpha-1-proteinase inhibitor (alpha1PI) | – | highly protective |
